Assay results as given in patent US8685941B2, “Drug composition cytotoxic for pancreatic cancer cells” (University of Central Florida Research Foundation, Inc., priority 2008, dated 2014).
Where two headings read alike, the source gives them in different places.

Columns and labels:
Stat3 [1] = assay: Stat3 DNA-binding activity, EMSA of nuclear extracts, Panc-1; format: cell-based, human; details: for constitutive Stat3 DNA-binding activity: Panc-1, 24 h treatment; for constitutively-active Stat3 DNA-binding activity: first 30 min to 1 h of treatment
Procedure: (§1) Nuclear Extract Preparation and Gel Shift Assays.
(§2) Nuclear extract preparation and DNA-binding with electrophoretic mobility shift assay (EMSA) were carried out, as previously reported (14, 15). The ^32P-labeled oligonucleotide probes used were hSIE (high affinity sis-inducible element from the c-fos gene, m67 variant), 5′-[…]; (SEQ ID NO:1) that binds Stat1 and Stat3 (Wagner et al., 1990) and the MGFe (mammary gland factor element from the bovine β-casein gene promoter, 5′-[…]; (SEQ ID NO:2) that binds Stat1 and Stat5 (Gouilleux et al., 1995; Seidel et al., 1995).

Panc-1 or Colo-357 cells = assay: Viable cell count by trypan blue exclusion/phase-contrast microscopy; format: cell-based, human
From the text: (§3) Cell Proliferation Viability Assay and Annexin V Binding and Flow Cytometry.
(§4) Viable cells were counted by trypan blue exclusion/phase contrast microscopy or assessed by CyQuant cell viability assay, according to manufacturer's (Invitrogen) instructions, or cells were processed for Annexin V binding (BD Biosciences) with flow cytometry for apoptosis.

Panc-1 cells = assay: CyQuant cell proliferation/viability assay, Panc-1; format: cell-based; details: Homo sapiens
From the text: as §3, §4

[2] = system: Panc-1 and Colo-357 cells; assay: CyQuant cell proliferation/viability assay, statements for both lines
From the text: as §3, §4

[3] = system: Panc-1 and Colo-357 cells; assay: Colony survival assay; format: cell-based, human; details: 500 cells per dish, treated once for 48 h
Procedure: Single-cell suspension of Panc-1 and Colo-357 cells were seeded in 6-cm dishes (500 cells per well) and assayed as previously reported (19), treated the next day with inhibitors for 48 h, and allowed to grow until large colonies were visible. Colonies were stained with crystal violet for 4 h and counted under phase-contrast microscope.

pErk1/pErk2MAPK and pAkt = assay: Immunoblotting for pErk1/pErk2MAPK and pAkt (control studies); format: cell-based, human; details: Panc-1 and Colo-357 cells (data not shown)
Procedure: (§5) SDS-PAGE/Western Blot Analysis.
(§6) Western blotting analysis was performed as previously described (15, 18). Primary antibodies used were anti-Stat3 (C20) (Santa Cruz, Santa Cruz, Calif.), anti-pY845EGFR (Upstate Biotech, Millipore, Billerica, Mass.), and antibodies against pY705Stat3, Stat3, pY1068EGFR, pY1086EGFR, pY1173EGFR, EGFR, pY416Src, Src, c-Myc, and β-Actin from Cell Signaling (Danvers, Mass.). Inhibitors

Colo-357 cells = assay: CyQuant cell proliferation/viability assay, Colo-357; format: cell-based; details: Homo sapiens
From the text: as §3, §4

Stat3 [4] = assay: Stat3 DNA-binding activity, EMSA of nuclear extracts, Colo-357; format: cell-based, human
Procedure: as §1, §2

Src = molecular target: T1, Src (Homo sapiens, UniProt P12931); assay: Immunoblotting of whole-cell lysates for pY416Src; format: cell-based; details: immunoblot, 1 h and 24 h treatment or siRNA knockdown
T1 construct: endogenous in cells; host or cells: Panc-1 and Colo-357 human pancreatic cancer cells
T1 sequence (P12931 whole entry): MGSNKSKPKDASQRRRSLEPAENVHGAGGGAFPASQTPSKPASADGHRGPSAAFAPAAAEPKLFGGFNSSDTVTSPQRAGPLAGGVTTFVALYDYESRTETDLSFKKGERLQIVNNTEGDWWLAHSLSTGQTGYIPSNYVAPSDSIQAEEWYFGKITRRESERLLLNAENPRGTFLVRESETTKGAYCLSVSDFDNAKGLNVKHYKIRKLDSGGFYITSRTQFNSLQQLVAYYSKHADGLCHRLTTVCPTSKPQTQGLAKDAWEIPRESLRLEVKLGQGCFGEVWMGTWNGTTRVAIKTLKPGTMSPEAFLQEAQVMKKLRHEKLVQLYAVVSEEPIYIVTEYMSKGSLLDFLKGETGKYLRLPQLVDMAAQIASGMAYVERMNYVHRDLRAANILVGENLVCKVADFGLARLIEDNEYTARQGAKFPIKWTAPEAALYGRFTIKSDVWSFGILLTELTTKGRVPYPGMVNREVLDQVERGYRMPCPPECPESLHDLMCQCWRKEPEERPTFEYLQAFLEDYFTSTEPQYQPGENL
Procedure: as §5, §6
Small-Interfering RNA (siRNA) Transfection.
siRNA sequences for EGFR and Src were ordered from Dharmacon RNAi Technologies, Thermo Scientific (Lafayette, Colo.).

[5] = 1 μM ZD, 100 nM Das, or 50 μM S3I-201 alone, 24 h
[6] = PANC-1, inhibitor alone, 48-h treatment, read-out: IC50 against Panc-1 viability
[7] = 48-h treatment with each inhibitor alone
[8] = COLO357, inhibitor alone, 48-h treatment, read-out: IC50 against Colo-357 viability

SMILES | constitutive Stat3 DNA-binding activity (Stat3 [1]) | constitutively-active Stat3 DNA-binding activity (Stat3 [1]) | IC50 (Panc-1 cells; [6]) [µM] | IC50 (Colo-357 cells; [8]) [µM] | Stat3 DNA-binding activity (Stat3 [4]) | cell viability (viable cell count) (Panc-1 or Colo-357 cells; [5]) | cell viability (viable cell count) (Panc-1 or Colo-357 cells; treatment for 48 to 96 h) | viable cell numbers (fluorescent unit, FU) [2, 7] | colony numbers [3] | pErk1/pErk2MAPK and pAkt levels (pErk1/pErk2MAPK and pAkt) | further results
N#C/C(=C\c1ccc(O)c(O)c1)C(=O)NCc1ccccc1 [AG490, Tyrphostin AG490] | abolished | no effect |  |  |  |  |  |  |  |  | 
Cc1nc(Nc2ncc(C(=O)Nc3c(C)cccc3Cl)s2)cc(N2CCN(CCO)CC2)n1 [Das, Dasatinib] | rebounded | early repression | 0.1 | 0.09 | inhibited | minimally affected | progressively decreased | decreased viable cell numbers | reduced colony numbers | neither of which was significantly affected | IC50 (Panc-1 cells; PANC-1, read-out: IC50 of Das against Panc-1 viability, concurrent treatment with S3I-201, 48-h treatment): 0.006 µM; sensitivity of both cell lines to S3I-201 ([2]; co-treatment with Das or ZD, 48 h): increased the sensitivity; IC50 (Colo-357 cells; COLO357, read-out: IC50 of Das against Colo-357 viability, concurrent treatment with S3I-201, 48-h treatment): 0.008 µM
Cc1ccc(S(=O)(=O)OCC(=O)Nc2ccc(C(=O)O)c(O)c2)cc1 [S3I-201] |  |  | 40 | 45 |  | minimally affected | progressively decreased |  | reduced colony numbers |  | IC50 (Panc-1 cells; PANC-1, 48 h, read-out: IC50 of S3I-201 on Panc-1 cells): 15 µM; viable cell numbers (fluorescent unit, FU) [2]: decreased viable cell numbers; sensitivity of Panc-1 and Colo-357 cells to ZD and Das ([2]; co-treatment with S3I-201, 48 h): increased the sensitivity; IC50 (Colo-357 cells; COLO357, 48 h, read-out: IC50 of S3I-201 on Colo-357 cells): 20 µM
COc1cc2ncnc(Nc3ccc(F)c(Cl)c3)c2cc1OCCCN1CCOCC1 [ZD, Gefitinib] | rebounded | early repression |  |  | inhibited | minimally affected | minimal effect | decreased viable cell numbers | not EGFR inhibition (by ZD) resulted in reduced colony numbers | neither of which was significantly affected | number of viable Panc-1 cells (Panc-1 or Colo-357 cells; ZD, 96 h (Day 4), Panc-1): decreased; cell viability ([2]; 1 μM ZD for 48 h): minimal effect

Now from value to compound, other results behind:

constitutive Stat3 DNA-binding activity (Stat3 [1]) | constitutively-active Stat3 DNA-binding activity (Stat3 [1]) | IC50 (Panc-1 cells; [6]) [µM] | IC50 (Colo-357 cells; [8]) [µM] | Stat3 DNA-binding activity (Stat3 [4]) | SMILES | cell viability (viable cell count) (Panc-1 or Colo-357 cells; [5]) | cell viability (viable cell count) (Panc-1 or Colo-357 cells; treatment for 48 to 96 h) | viable cell numbers (fluorescent unit, FU) [2, 7] | colony numbers [3] | pErk1/pErk2MAPK and pAkt levels (pErk1/pErk2MAPK and pAkt) | further results
moderately inhibited | early repression |  |  |  | CC(C)(C)c1cc(/C=C(\C#N)C(N)=S)cc(C(C)(C)C)c1O [AG879] |  |  |  |  |  | 
rebounded | early repression |  |  |  | C=CC(=O)Nc1cc2c(Nc3cccc(Br)c3)ncnc2cc1OCCCN1CCOCC1 [PD169] |  |  |  |  |  | pY416Src level (Src activity) (Src): no detectable changes
